IC50 data for 33 compounds are collected here from patent US9023847B2, “Azaheterocyclic compounds” (Merck Patent GmbH, priority 2009, dated 2015).

Broadly, the IC50 is the concentration that inhibits the measured activity by half.

Bounds are passed on as bounds.

The test deals with T1, P70S6K (T412E mutant, Millipore) (Homo sapiens, UniProt P23443, T412E).
T1 construct: purchased Millipore
T1 sequence (P23443 whole entry T412E): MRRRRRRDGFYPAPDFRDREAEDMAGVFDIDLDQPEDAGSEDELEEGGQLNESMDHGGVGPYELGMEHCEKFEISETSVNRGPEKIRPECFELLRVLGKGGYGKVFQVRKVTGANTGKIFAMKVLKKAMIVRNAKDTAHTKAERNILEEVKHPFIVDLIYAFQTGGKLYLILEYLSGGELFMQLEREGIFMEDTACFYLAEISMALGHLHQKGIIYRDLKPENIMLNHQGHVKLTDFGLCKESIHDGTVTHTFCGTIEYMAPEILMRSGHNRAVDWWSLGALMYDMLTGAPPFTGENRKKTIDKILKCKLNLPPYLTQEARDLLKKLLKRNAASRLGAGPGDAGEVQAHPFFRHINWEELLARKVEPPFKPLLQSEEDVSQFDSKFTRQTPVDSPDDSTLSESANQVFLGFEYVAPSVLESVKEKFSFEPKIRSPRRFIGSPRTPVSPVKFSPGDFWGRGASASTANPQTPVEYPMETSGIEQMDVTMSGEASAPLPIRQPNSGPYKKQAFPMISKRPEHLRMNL
Kind of test: p70S6K enzyme assay. It is filed as biochemical. As to conditions: class symbol; 3 nM P70S6K, 24 μM ATP; read-out: IC50 (p70S6K). How it is done:
P70S6K inhibitor compounds are diluted and plated in 96 well plates. A reaction mixture including the following components is then added to the compound plate to initiate the enzyme reaction; P70S6K (3 nM, T412E mutant, Millipore) is mixed with 24 μM ATP in an assay buffer containing 100 mM Hepes (pH 7.5), 5 mM MgCl2, 1 mM DTT, 0.015% Brij and 1 μM of the substrate peptide FITC-AHA-AKRRRLSSLRA-OH (derived from the S6 ribosomal protein sequence, FITC=fluorescein isothiocyanate, AHA=6-aminohexanoic acid). The reaction is incubated for 90 min at 25° C., before the addition of 10 mM EDTA to stop the reaction. The proportion of substrate and product (phosphorylated) peptide is analysed on a Caliper Life Sciences Lab Chip 3000, using a pressure of −1.4 psi, and upstream and downstream voltages of −3000 and −700 respectively. Product peaks are resolved before substrate peaks on the resulting chromatograms.
In the case of `CCOC(=O)CCNC(=O)c1sccc1Nc1ccnc2[nH]ccc12` [Example 33, 3-{[3-(1H-Pyrrolo[2,3-b]pyridin-4-ylamino)-thiophene-2-carbonyl]-amino}-propionic acid ethyl ester], the IC50 is 100 to 1000 nM. Regarding `O=C(NCCNc1ccccc1)c1sccc1Nc1ccnc2[nH]ccc12` [Example 34, 3-(1H-Pyrrolo[2,3-b]pyridin-4-ylamino)-thiophene-2-carboxylic acid (2-phenylamino-ethyl)-amide], the IC50 was under 100 nM. Turning to `O=C(Nc1ccc(Cl)cc1)c1sccc1Nc1ccnc2[nH]ccc12` [Example 35, 3-(1H-Pyrrolo[2,3-b]pyridin-4-ylamino)-thiophene-2-carboxylic acid (4-chloro-phenyl)-amide], the IC50 was under 100 nM.

`COc1ccc(NC(=O)c2sccc2Nc2ccnc3[nH]ccc23)cc1` [Example 36, 3-(1H-Pyrrolo[2,3-b]pyridin-4-ylamino)-thiophene-2-carboxylic acid (4-methoxy-phenyl)-amide]: the IC50 is under 100 nM. Turning to `O=C(Nc1ccc(F)cc1)c1sccc1Nc1ccnc2[nH]ccc12` [Example 37, 3-(1H-Pyrrolo[2,3-b]pyridin-4-ylamino)-thiophene-2-carboxylic acid (4-fluoro-phenyl)-amide], the concentration for half-maximal inhibition (IC50) was under 100 nM. For `COc1cccc(NC(=O)c2sccc2Nc2ccnc3[nH]ccc23)c1` [Example 39, 3-(1H-Pyrrolo[2,3-b]pyridin-4-ylamino)-thiophene-2-carboxylic acid (3-methoxy-phenyl)-amide], the IC50 lay in the range of 100 to 1000 nM. `COc1ccc(CNCCNC(=O)c2sccc2Nc2ccnc3[nH]ccc23)cc1` [Example 40, 3-(1H-Pyrrolo[2,3-b]pyridin-4-ylamino)-thiophene-2-carboxylic acid [2-(4-methoxy-benzylamino)-ethyl]-amide]: the 50% inhibitory concentration (IC50) is under 100 nM. On to `O=C(NCCNCc1ccccn1)c1sccc1Nc1ccnc2[nH]ccc12` [Example 41, 3-(1H-Pyrrolo[2,3-b]pyridin-4-ylamino)-thiophene-2-carboxylic acid {2-[(pyridin-2-ylmethyl)-amino]-ethyl}-amide], for which the half-maximal inhibitory concentration (IC50) was under 100 nM. As for `NCCNC(=O)c1sccc1Nc1ccnc2[nH]ccc12` [Example 42, 3-(1H-Pyrrolo[2,3-b]pyridin-4-ylamino)-thiophene-2-carboxylic acid (2-amino-ethyl)-amide], the figure is under 100 nM; as for `O=C(N[C@@H](CO)c1ccccc1)c1sccc1Nc1ccnc2[nH]ccc12` [Example 43, R-[3-(1H-Pyrrolo[2,3-b]pyridin-4-ylamino)-thiophene-2-carboxylic acid (2-hydroxy-1-phenyl-ethyl)-amide]], 1000 to 10000 nM. As for `O=C(N[C@H](CO)c1ccccc1)c1sccc1Nc1ccnc2[nH]ccc12` [Example 44, S-[3-(1H-Pyrrolo[2,3-b]pyridin-4-ylamino)-thiophene-2-carboxylic acid (2-hydroxy-1-phenyl-ethyl)-amide]], the figure is under 100 nM; as for `CC(=O)N(CCNC(=O)c1sccc1Nc1ccnc2[nH]ccc12)Cc1ccccc1` [Example 45, 3-(1H-Pyrrolo[2,3-b]pyridin-4-ylamino)-thiophene-2-carboxylic acid [2-(acetyl-benzyl-amino)-ethyl]-amide], 100 to 1000 nM; as for `O=C(NCCNCc1ccsc1)c1sccc1Nc1ccnc2[nH]ccc12` [Example 46, 3-(1H-Pyrrolo[2,3-b]pyridin-4-ylamino)-thiophene-2-carboxylic acid {2-[(thiophen-3-ylmethyl)-amino]-ethyl}-amide], under 100 nM. Consider `O=C(NCCN(Cc1ccoc1)Cc1ccoc1)c1sccc1Nc1ccnc2[nH]ccc12` [Example 47, 3-(1H-Pyrrolo[2,3-b]pyridin-4-ylamino)-thiophene-2-carboxylic acid [2-(bis-furan-3-ylmethyl-amino)-ethyl]-amide], for which the IC50 was under 100 nM. As for `O=C(NCCNCc1ccccc1OC(F)(F)F)c1sccc1Nc1ccnc2[nH]ccc12` [Example 48, 3-(1H-Pyrrolo[2,3-b]pyridin-4-ylamino)-thiophene-2-carboxylic acid [2-(2-trifluoromethoxy-benzylamino)-ethyl]amide], the figure is under 100 nM; as for `COc1cccc(CNCCNC(=O)c2sccc2Nc2ccnc3[nH]ccc23)c1` [Example 49, 3-(1H-Pyrrolo[2,3-b]pyridin-4-ylamino)-thiophene-2-carboxylic acid [2-(3-methoxy-benzylamino)-ethyl]-amide], under 100 nM. The result for `O=C(NCCNCc1cccc(OC(F)(F)F)c1)c1sccc1Nc1ccnc2[nH]ccc12` [Example 50, 3-(1H-Pyrrolo[2,3-b]pyridin-4-ylamino)-thiophene-2-carboxylic acid [2-(3-trifluoromethoxy-benzylamino)-ethyl]-amide] reads under 100 nM; that for `O=C(NCCNCc1ccc(OC(F)(F)F)cc1)c1sccc1Nc1ccnc2[nH]ccc12` [Example 51, 3-(1H-Pyrrolo[2,3-b]pyridin-4-ylamino)-thiophene-2-carboxylic acid [2-(4-trifluoromethoxy-benzylamino)-ethyl]-amide], under 100 nM; that for `O=C(NCCNCc1ccc(C(F)(F)F)cc1)c1sccc1Nc1ccnc2[nH]ccc12` [Example 52, 3-(1H-Pyrrolo[2,3-b]pyridin-4-ylamino)-thiophene-2-carboxylic acid [2-(4-trifluoromethyl-benzylamino)-ethyl]-amide], under 100 nM.

On to `O=C(NCCNCc1ccoc1)c1sccc1Nc1ccnc2[nH]ccc12` [Example 53, 3-(1H-Pyrrolo[2,3-b]pyridin-4-ylamino)-thiophene-2-carboxylic acid {2-[(furan-3-ylmethyl)-amino]-ethyl}-amide], for which the half-maximal inhibitory concentration (IC50) was under 100 nM. The result for `Cc1cccc(CN(CCNC(=O)c2sccc2Nc2ccnc3[nH]ccc23)Cc2cccc(C)c2)c1` [Example 55, 3-(1H-Pyrrolo[2,3-b]pyridin-4-ylamino)-thiophene-2-carboxylic acid {2-[bis-(3-methyl-benzyl)-amino]-ethyl}-amide] reads 100 to 1000 nM; that for `Cc1cccc(CNCCNC(=O)c2sccc2Nc2ccnc3[nH]ccc23)c1` [Example 56, 3-(1H-Pyrrolo[2,3-b]pyridin-4-ylamino)-thiophene-2-carboxylic acid [2-(3-methyl-benzylamino)-ethyl]-amide], under 100 nM; that for `O=C(NCCNCc1ccccc1F)c1sccc1Nc1ccnc2[nH]ccc12` [Example 58, 3-(1H-Pyrrolo[2,3-b]pyridin-4-ylamino)-thiophene-2-carboxylic acid [2-(2-fluoro-benzylamino)-ethyl]-amide], under 100 nM. As for `O=C(NCCNCc1ccc2[nH]ccc2c1)c1sccc1Nc1ccnc2[nH]ccc12` [Example 59, 3-(1H-Pyrrolo[2,3-b]pyridin-4-ylamino)-thiophene-2-carboxylic acid {2-[(1H-indol-5-ylmethyl)-amino]-ethyl}-amide], the IC50 was under 100 nM. With `COc1ccccc1CNCCNC(=O)c1sccc1Nc1ccnc2[nH]ccc12` [Example 60, 3-(1H-Pyrrolo[2,3-b]pyridin-4-ylamino)-thiophene-2-carboxylic acid [2-(2-methoxy-benzylamino)-ethyl]-amide], the half-maximal inhibitory concentration (IC50) is under 100 nM. For `O=C(NCCNCc1cccnc1)c1sccc1Nc1ccnc2[nH]ccc12` [Example 61, 3-(1H-Pyrrolo[2,3-b]pyridin-4-ylamino)-thiophene-2-carboxylic acid {2-[(pyridin-3-ylmethyl)-amino]-ethyl}-amide], the IC50 lay in the range of 100 to 1000 nM. For the compound `O=C(NCCNCc1ccc(F)cc1)c1sccc1Nc1ccnc2[nH]ccc12` [Example 62, 3-(1H-Pyrrolo[2,3-b]pyridin-4-ylamino)-thiophene-2-carboxylic acid [2-(4-fluoro-benzylamino)-ethyl]-amide], the IC50 is under 100 nM.

Regarding `O=C(NCCNCc1ccc(F)c(Cl)c1)c1sccc1Nc1ccnc2[nH]ccc12` [Example 63, 3-(1H-Pyrrolo[2,3-b]pyridin-4-ylamino)-thiophene-2-carboxylic acid [2-(3-chloro-4-fluoro-benzylamino)-ethyl]-amide], the half-inhibitory concentration (IC50) was under 100 nM.

With `NC1CCN(C(=O)c2sccc2Nc2ccnc3[nH]ccc23)CC1` [Example 64, (4-Amino-piperidin-1-yl)-[3-(1H-pyrrolo[2,3-b]pyridin-4-ylamino)-thiophen-2-yl]-methanone], the IC50 lay within 1000 to 10000 nM. For `O=C(c1sccc1Nc1ccnc2[nH]ccc12)N1CCC(NCc2ccccc2)CC1` [Example 65, (4-Benzylamino-piperidin-1-yl)-[3-(1H-pyrrolo[2,3-b]pyridin-4-ylamino)-thiophen-2-yl]-methanone], the 50% inhibitory concentration (IC50) fell in the range of 1000 to 10000 nM.

Turning to `O=C(NCCSCc1ccccc1)c1sccc1Nc1ccnc2[nH]ccc12` [Example 66, 3-(1H-Pyrrolo[2,3-b]pyridin-4-ylamino)-thiophene-2-carboxylic acid (2-benzylsulfanyl-ethyl)-amide], the half-maximal inhibitory concentration (IC50) lay in the range of 100 to 1000 nM. For `NCCCNC(=O)c1sccc1Nc1ccnc2[nH]ccc12` [Example 67, 3-(1H-Pyrrolo[2,3-b]pyridin-4-ylamino)-thiophene-2-carboxylic acid (3-amino-propyl)-amide], the IC50 was in the range of 100 to 1000 nM.

With `O=C(NCCOCc1ccccc1)c1sccc1Nc1ccnc2[nH]ccc12` [Example 68, 3-(1H-Pyrrolo[2,3-b]pyridin-4-ylamino)-thiophene-2-carboxylic acid (2-benzyloxy-ethyl)-amide], the IC50 is under 100 nM.
